Laboratory results: ChEMBL document CHEMBL1667805, “Synthesis of new C5-(1-substituted-1,2,3-triazol-4 or 5-yl)-2'-deoxyuridines and their antiviral evaluation” (Eur J Med Chem, 2011)
Active and inactive are the calls of the source. The calls are words filed in the database; no cut-off is given here.

Legend:
Human alphaherpesvirus 3 [1] = assay: microbe, parasite or virus in culture; conditions: Human alphaherpesvirus 3, 07-1, HEL
Human respirovirus 3 = type: functional, organism-based; conditions: Vero
Human alphaherpesvirus 2 = assay: microbe, parasite or virus in culture; conditions: Human alphaherpesvirus 2, strain G, HEL
Influenza A virus [2] = type: functional, organism-based; conditions: H1N1, MDCK
Human alphaherpesvirus 1 [3] = assay: microbe, parasite or virus in culture; conditions: Human alphaherpesvirus 1, KOS, HEL
Human alphaherpesvirus 1 [4] = assay: microbe, parasite or virus in culture; conditions: Human alphaherpesvirus 1, KOS, HEL; remark: listed apart in the source
HeLa = assay: cells; conditions: Homo sapiens, 96 h
[5] = tested on: Vesicular stomatitis virus; type: functional, organism-based; conditions: MDCK
[6] = tested on: Human immunodeficiency virus 1; assay: Antiviral activity against HIV1 3B infected in human […] cells assessed as virus-induced CEM giant cell formation after 4 days; type: functional, organism-based
Coxsackievirus B4 = type: functional, organism-based; conditions: HeLa
[7] = tested on: Vesicular stomatitis virus; type: functional, organism-based; conditions: HeLa
Influenza A virus [8] = type: functional, organism-based; conditions: H3N2, MDCK
Influenza B virus = type: functional, organism-based; conditions: MDCK
[9] = tested on: Human immunodeficiency virus 2; assay: Antiviral activity against HIV2 ROD infected in human […] cells assessed as virus-induced CEM giant cell formation after 4 days; type: functional, organism-based; conditions: ISOLATE ROD
Punta Toro virus = type: functional, organism-based; conditions: Vero
[10] = tested on: Mammalian orthoreovirus 1; type: functional, organism-based; conditions: Vero
Human betaherpesvirus 5 [11] = assay: microbe, parasite or virus in culture; conditions: Human betaherpesvirus 5, AD169, HEL
L1210 = assay: cells; conditions: Mus musculus, L1210, 48 h
Human betaherpesvirus 5 [12] = assay: microbe, parasite or virus in culture; conditions: Human betaherpesvirus 5, Davis, HEL
Vaccinia virus = assay: microbe, parasite or virus in culture; conditions: Orthopoxvirus vaccinia, HEL
Sindbis virus = type: functional, organism-based; conditions: Vero
Human alphaherpesvirus 3 [13] = assay: microbe, parasite or virus in culture; conditions: Human alphaherpesvirus 3, strain Oka vaccine, HEL
CCRF-CEM = assay: cells; conditions: Homo sapiens, 72 h
in vitro = conditions: human, HEL cells

SMILES | EC50 (Human alphaherpesvirus 3 [1]) [µM] | inhibition (Human respirovirus 3) | EC50 (Human alphaherpesvirus 2) [µM] | inhibition (Influenza A virus [2]) | EC50 (Human alphaherpesvirus 1 [3]) [µM] | EC50 (Human alphaherpesvirus 1 [4]) [µM] | IC50 (HeLa) [µM] | inhibition [5] | inhibition [6] | inhibition (Coxsackievirus B4) | inhibition [7] | inhibition (Influenza A virus [8]) | inhibition (Influenza B virus) | inhibition [9] | inhibition (Punta Toro virus) | inhibition [10] | EC50 (Human betaherpesvirus 5 [11]) [µM] | IC50 (L1210) [µM] | EC50 (Human betaherpesvirus 5 [12]) [µM] | EC50 (Vaccinia virus) [µM] | further results
O=c1[nH]c(=O)n([C@H]2C[C@H](O)[C@@H](CO)O2)cc1-c1cn(-c2ccc(Oc3ccccc3)cc2)nn1 | 5.7 | inactive | ≥ 43 | inactive | 8.6 | 31 | 0.28 | inactive | inactive | inactive | inactive | inactive | inactive | inactive | inactive | inactive | 19.4 | 0.5 | 16.4 | 4.3 | inhibition (Sindbis virus): inactive; EC50 (Human alphaherpesvirus 3 [13]): 1.4 µM; IC50 (CCRF-CEM): 0.8 µM; CC50 at 72 h (in vitro): 0.45 µM; MCC at 72 h (in vitro): 130 µM
O=c1[nH]c(=O)n([C@H]2C[C@H](O)[C@@H](CO)O2)cc1-c1cn(-c2ccc(Cl)cc2)nn1 | 48 | inactive | > 240 | inactive | > 240 | > 240 | 4 | inactive | inactive | inactive | inactive | inactive | inactive | inactive | inactive | inactive | > 240 | 14.8 | > 131 | > 240 | inhibition (Sindbis virus): inactive; EC50 (Human alphaherpesvirus 3 [13]): 41 µM; IC50 (CCRF-CEM): 13 µM; CC50 at 72 h (in vitro): 7.4 µM; MCC at 72 h (in vitro): > 240 µM
O=c1[nH]c(=O)n([C@H]2C[C@H](O)[C@@H](CO)O2)cc1-c1cn(-c2ccc([N+](=O)[O-])cc2)nn1 | > 50 | inactive | > 50 | inactive | > 50 | > 50 | > 100 | inactive | inactive | inactive | inactive | inactive | inactive | inactive | inactive | inactive | > 50 | > 100 | > 50 | > 50 | inhibition (Sindbis virus): inactive; EC50 (Human alphaherpesvirus 3 [13]): > 50 µM; IC50 (CCRF-CEM): > 100 µM; CC50 at 72 h (in vitro): 136 µM; MCC at 72 h (in vitro): 240 µM
